From patent US7417052B2, “Phenylene derivative having tetrazole ring or thiazolidinedione ring” (Sankyo Company, Limited, priority 2003, dated 2008)

System: not given
Assay: not given
Conditions: not given

Compared with `CCCC1Oc2ccc(C(=O)O)cc2N(Cc2ccc(-c3ccccc3-c3nnn[nH]3)cc2)C1=O` (stereo not shown) [Example 14, 3-oxo-2-propyl-4-[[4-[2-(1H-tetrazol-5-yl)phenyl]phenyl]methyl]-2H-benzo[e]1,4-oxazine-6-carboxylic acid], `CCc1nc2c(C)cc(C)nc2n1Cc1ccc(C2SC(=O)NC2=O)cc1` (stereo not shown) [Example 18, 5-[4-[(2-ethyl-5,7-dimethylimidazo[4,5-b]pyridin-3-yl)methyl]phenyl]-1,3-thiazolidine-2,4-dione] is higher in melting point: 197 to 198 °C for the first, 221 to 222 °C for the second.

System: pentosidine (AGEs) formation in serum of kidney failure patients
Assay: AGEs formation inhibitory effect (pentosidine production in serum protein, HPLC)
Type: biochemical, human
Conditions: test compound final concentration 5 mM, incubated at 37° C. for one week, proportion to pentosidine production amount by control
Experimental: AGEs Formation Inhibitory Effect
A solution (50 μl) of the test compound (final concentration 5 mM) in dimethyl sulfoxide was added to a protein (450 μl, serum of kidney failure patients who gave informed consent), and the mixture was incubated at 37° C. for one week. Pentosidine, which is one of the AGEs produced, was measured as follows. To separate pentosidine produced in the protein, 10% trichloroacetic acid (50 μl) was added to the sample after the reaction (50 μl) and the mixture was centrifuged and the precipitated protein was recovered. The recovered protein was washed with 300 μl of 5% trichloroacetic acid, dried and hydrolyzed with 6N hydrochloric acid (100 μl) at 110° C. for 16 hrs. The amount (nmol/l) of pentosidine produced was measured by HPLC (ODS C18, 4.6×250 mm, 335 nm, 385 nm) using a fluorescence detector by the gradient of 30 min., 1.0 ml/min with 0.1% trifluoroacetic acid added distilled water/0.08% trifluoroacetic acid added 80% acetonitrile as a mobile phase (Miyata, T et al.: J. Am. Soc. Nephrol., 7, 1198-1206, 1996, and Miyata, T. et al.: Proc. Natl. Acad. Sci. USA, 93 2353-2358, 1996).
To study AGEs formation inhibitory effect, the proportion of the aforementioned pentosidine production amount to the pentosidine production amount by control was calculated as pentosidine production rate (%).

First: CCCCCCCC(=O)N(Cc1ccc(-c2ccccc2-c2nnn[nH]2)cc1)c1cccc(C(=O)O)c1 [Example 5, 3-[N-[[4-[2-(1H-tetrazol-5-yl)phenyl]phenyl]methyl]-N-octanoylamino]benzoic acid]
Second: CCCCC(=O)N(Cc1ccc(-c2ccccc2-c2nnn[nH]2)cc1)c1cccc(C(=O)O)c1 [Example 1, 3-[N-[[4-[2-(1H-tetrazol-5-yl)phenyl]phenyl]methyl]-N-pentanoylamino]benzoic acid]
The “pentosidine production rate (%)” value of the first is lower: 9.33% for the first, 18.1% for the second.

Going from `CCCCC(=O)N(Cc1ccc(-c2ccccc2-c2nnn[nH]2)cc1)c1ccccc1C(=O)O` [Example 8, 2-[N-[[4-[2-(1H-tetrazol-5-yl)phenyl]phenyl]methyl]-N-pentanoylamino]benzoic acid] to `CCCCC(=O)N(Cc1ccc(-c2ccccc2-c2nnn[nH]2)cc1)c1ccc(C(=O)O)cc1` [Example 9, 4-[N-[[4-[2-(1H-tetrazol-5-yl)phenyl]phenyl]methyl]-N-pentanoylamino]benzoic acid], the “pentosidine production rate (%)” value rises from 23.5% to 30.8%.

First: CCCC1Oc2ccc(C(=O)O)cc2N(Cc2ccc(-c3ccccc3-c3nnn[nH]3)cc2)C1=O (stereo not shown) [Example 14, 3-oxo-2-propyl-4-[[4-[2-(1H-tetrazol-5-yl)phenyl]phenyl]methyl]-2H-benzo[e]1,4-oxazine-6-carboxylic acid]
Second: CCCC1Sc2ccc(C(=O)O)cc2N(Cc2ccc(-c3ccccc3-c3nnn[nH]3)cc2)C1=O (stereo not shown) [Example 16, 3-oxo-2-propyl-4-[[4-[2-(1H-tetrazol-5-yl)phenyl]phenyl]methyl]-2H-benzo[e]1,4-thiazine-6-carboxylic acid]
The “pentosidine production rate (%)” value of the first is lower: 22.1% for the first, 25.8% for the second.

Compared with `CCC(=O)N(Cc1ccc(-c2ccccc2-c2nnn[nH]2)cc1)c1cccc(C(=O)O)c1` [Example 3, 3-[N-[[4-[2-(1H-tetrazol-5-yl)phenyl]phenyl]methyl]-N-propanoylamino]benzoic acid], `CCCC(=O)N(Cc1ccc(-c2ccccc2-c2nnn[nH]2)cc1)c1cccc(C(=O)O)c1` [Example 4, 3-[N-[[4-[2-(1H-tetrazol-5-yl)phenyl]phenyl]methyl]-N-butanoylamino]benzoic acid] is lower in “pentosidine production rate (%)” value: 21.3% for the first, 17.4% for the second.

Going from `CCCc1nc2c(C)cc(C)nc2n1Cc1ccc(C2SC(=O)NC2=O)cc1` (stereo not shown) [Example 19, 5-[4-[(5,7-dimethyl-2-propylimidazo[4,5-b]pyridin-3-yl)methyl]phenyl]-1,3-thiazolidine-2,4-dione] to `CCc1nc2c(C)cc(C)nc2n1Cc1ccc(C2SC(=O)NC2=O)cc1` (stereo not shown) [Example 18, 5-[4-[(2-ethyl-5,7-dimethylimidazo[4,5-b]pyridin-3-yl)methyl]phenyl]-1,3-thiazolidine-2,4-dione], the “pentosidine production rate (%)” value falls from 23.8% to 18.0%.

Compared with `O=C1CCc2ccccc2N1Cc1ccc(-c2ccccc2-c2nnn[nH]2)cc1` [Example 13, 1-[[4-[2-(1H-tetrazol-5-yl)phenyl]phenyl]methyl]-1,3,4-trihydroquinolin-2-one], `CCCC1Cc2cc(C(=O)O)ccc2N(Cc2ccc(-c3ccccc3-c3nnn[nH]3)cc2)C1=O` (stereo not shown) [Example 11, 2-oxo-3-propyl-1-[[4-[2-(1H-tetrazol-5-yl)phenyl]phenyl]methyl]-1,3,4-trihydroquinoline-6-carboxylic acid] is lower in “pentosidine production rate (%)” value: 45.4% for the first, 24.9% for the second.

Compared with `CCCC1Cc2ccc(C(=O)OCc3oc(=O)oc3C)cc2N(Cc2ccc(-c3ccccc3-c3nnn[nH]3)cc2)C1=O` (stereo not shown) [Example 12, (5-methyl-2-oxo-1,3-dioxolen-4-yl)methyl2-oxo-3-propyl-1-[[4-[2-(1H-tetrazol-5-yl)phenyl]phenyl]methyl]-1,3,4-trihydroquinoline-7-carboxylate], `CCCC1Cc2ccc(C(=O)O)cc2N(Cc2ccc(-c3ccccc3-c3nnn[nH]3)cc2)C1=O` (stereo not shown) [Example 10, 2-oxo-3-propyl-1-[[4-[2-(1H-tetrazol-5-yl)phenyl]phenyl]methyl]-1,3,4-trihydroquinoline-7-carboxylic acid] is lower in “pentosidine production rate (%)” value: 29.0% for the first, 18.0% for the second.

Compared with `CCCC1Sc2ccc(C(=O)O)cc2N(Cc2ccc(-c3nnn[nH]3)cc2)C1=O` (stereo not shown) [Example 17, 3-oxo-2-propyl-4-[[4-(1H-tetrazol-5-yl)phenyl]methyl]2-H-benzo[e]1,4-thiazine-6-carboxylic acid], `CCCC1Oc2ccc(C(=O)O)cc2N(Cc2ccc(-c3nnn[nH]3)cc2)C1=O` (stereo not shown) [Example 15, 3-oxo-2-propyl-4-[4-[4-(1H-tetrazol-5-yl)phenyl]methyl]2-H-benzo[e]1,4-oxazine-6-carboxylic acid] is lower in “pentosidine production rate (%)” value: 35.0% for the first, 23.8% for the second.

Compared with `CC(=O)N(Cc1ccc(-c2ccccc2-c2nnn[nH]2)cc1)c1cccc(C(=O)O)c1` [Example 2, 3-[N-[[4-[2-(1H-tetrazol-5-yl)phenyl]phenyl]methyl]-N-acetylamino]benzoic acid], `CCCCC(=O)N(Cc1ccc(-c2nnn[nH]2)cc1)c1cccc(C(=O)O)c1` [Example 7, 3-[N-[[4-(1H-tetrazol-5-yl)phenyl]methyl]-N-pentanoylamino]benzoic acid] is higher in “pentosidine production rate (%)” value: 26.1% for the first, 27.2% for the second.

Going from `CCCCC(=O)N(Cc1ccc(-c2ccccc2-c2nnn[nH]2)cc1)c1cccc(C(=O)OCc2oc(=O)oc2C)c1` [Example 6, (5-methyl-2-oxo-1,3-dioxolen-4-yl)methyl3-[N-[[4-[2-(1H-tetrazol-5-yl)phenyl]phenyl]methyl]-N-pentanoylamino]benzoate] to `CCCCC(=O)N(Cc1ccc(C2SC(=O)NC2=O)cc1)c1cccc(C(=O)O)c1` (stereo not shown) [Example 22, 3-[N-[4-(2,4-dioxothiazolidin-5-yl)benzyl]-N-pentanoylamino]benzoic acid], the “pentosidine production rate (%)” value falls from 16.8% to 12.4%.
